Several values for one entry are separate records, joined by “and”; a condition that tells them apart may be missing. Equal entries are not always repeated.
What was measured:
Type in all cases: cell-based
[1] = test system: PLK1 and p53-Y220C localization in cotransfected 293T cells; experiment: colocalization assay, live-cell imaging; conditions: nonmitotic cells
Experimental: The 293T cells were seeded in six-well plates and cotransfected with Halo–p53-Y220C ΔTAD–mCherry and mEGFP–PLK1–SmBiT (1:1). After 1 day, the cells were passaged into 96-well plates in FluoroBrite DMEM for microscopy. The cells were imaged with the Opera Phenix Plus high-content screening system (PerkinElmer) before compound treatment and as a time series following compound treatment.

[2] = test system: Halo–p53-R273H (FL)–mCherry 293T cells versus parental 293T cells; experiment: flow-cytometry growth competition; conditions: for normalized_mCherry_percentage: R273H, day 8, normalized to DMSO
Summary of the method: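 Marker-positive and marker-negative cells mixed, plated at low density and treated with varying compound concentrations, passaged and retreated as needed. Fluorophore-positive versus negative fractions quantified by flow cytometry, gated on untreated mixtures.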

MFE319 cells = experiment: CellTiter-Glo cell viability; design: p5301_AUC_to_10uM / AUC_rezatapopt: scale not given here; viability, replicates (sheet 4G): unit not given here; conditions: for mean_norm (normalized viability): 4 day; for viability, replicates (sheet 4G): No PMV6
Experimental: (§1) Cells were plated in 384-well plates (typically 1,500 cells per well) with varying concentrations of compounds, with a total volume of 50 μl per well. CTG reagent was added (25 μl) to the solutions, mixed and read out using an EnVision 2105 multimode plate reader.

[3] = CellTiter-Glo cell viability; design: p5301_AUC_to_10uM / AUC_rezatapopt: scale not given here; viability, replicates (sheet 4G): unit not given here; conditions: human, MFE319 cells, No PMV6, read-out: viability, replicates (sheet 4G)
Experimental: as §1

MFE296 cells = experiment: CellTiter-Glo cell viability
Experimental: as §1

LNCaP cells = experiment: CellTiter-Glo cell viability; conditions: for mean_norm (normalized viability): LNCAP, 4 day
Experimental: as §1

HepG2 cells = experiment: CellTiter-Glo cell viability
Experimental: as §1

NUGC-3 cells = experiment: CellTiter-Glo cell viability; conditions: NUGC3
Experimental: as §1

[4] = p53-01 Concentration (µM) 0.0390625
[5] = p53-01 Concentration (µM) 0.078125
[6] = p53-01 Concentration (µM) 0.625

With CC[C@@H]1C(=O)N(C)c2cnc(Nc3ccc(C(=O)NCCOCCOCCOCCOCCC(=O)N4CCC(Nc5cccc6c5cc(C#CCNc5ccc(S(C)(=O)=O)cc5OC)n6CC(F)(F)F)CC4)cc3OC)nc2N1C1CCCC1 [p53-01, PMV6-PEG4-BI2536] the “protein localization” value [1] was “PLK1 nuclear enrichment and colocalization with p53-Y220C”, the normalized_mCherry_percentage ([2]; 1 nM) was 95.51% and the normalized_mCherry_percentage ([2]; 10 nM) was 97.26%. For the same compound, the normalized_mCherry_percentage ([2]; 100 nM) was 96.23%, the normalized_mCherry_percentage ([2]; 1 uM) was 90.97% and the “activity in competition” value ([2]; day 8) was “did not observe any activity”. The IC50 (MFE319 cells; 96 h, MFE319, 4 day treatment) was 1270 nM, the p5301_AUC_to_10uM (MFE319 cells; MFE319) was 0.3547 and the “mean_norm (normalized viability)” value (MFE319 cells; MFE319, Concentration 39.0625) was 0.968. The “mean_norm (normalized viability)” value (MFE319 cells; MFE319, Concentration 78.125) was 0.9234, the “mean_norm (normalized viability)” value (MFE319 cells; MFE319, Concentration 156.25) was 0.9253 and the “mean_norm (normalized viability)” value (MFE319 cells; MFE319, Concentration 312.5) was 0.9948. For the same compound, the “mean_norm (normalized viability)” value (MFE319 cells; MFE319, Concentration 625) was 0.9099, the “mean_norm (normalized viability)” value (MFE319 cells; MFE319, Concentration 1250) was 0.6095 and the “mean_norm (normalized viability)” value (MFE319 cells; MFE319, Concentration 2500) was 0.3193. The “mean_norm (normalized viability)” value (MFE319 cells; MFE319, Concentration 5000) was 0.2865, the “mean_norm (normalized viability)” value (MFE319 cells; MFE319, Concentration 10000) was 0.2268 and the “relative viability, replicates (sheet 4E)” value (“relative viability” below) (MFE319 cells; log Concentration (nM) 0.68867) was 1.049 and 0.9314 and 0.9072 and 0.917. The “relative viability” value (MFE319 cells; log Concentration (nM) 0.9897) was 0.9806 and 0.996 and 0.993 and 0.8521, the “relative viability” value (MFE319 cells; log Concentration (nM) 1.29073) was 0.9742 and 1.022 and 0.9775 and 0.9343 and the “relative viability” value (MFE319 cells; log Concentration (nM) 1.59176) was 1.009 and 1.026 and 0.9509 and 0.8871. For the same compound, the “relative viability” value (MFE319 cells; log Concentration (nM) 1.89279) was 0.9459 and 0.9044 and 0.9452 and 0.8983, the “relative viability” value (MFE319 cells; log Concentration (nM) 2.19382) was 0.8852 and 0.9848 and 0.9106 and 0.9206 and the “relative viability” value (MFE319 cells; log Concentration (nM) 2.49485) was 1.036 and 1.016 and 1.021 and 0.9075. The “relative viability” value (MFE319 cells; log Concentration (nM) 2.79588) was 0.9347 and 0.9684 and 0.8932 and 0.8433, the “relative viability” value (MFE319 cells; log Concentration (nM) 3.09691) was 0.6355 and 0.6443 and 0.6092 and 0.549 and the “relative viability” value (MFE319 cells; log Concentration (nM) 3.39794) was 0.3339 and 0.3826 and 0.2998 and 0.2608. The “relative viability” value (MFE319 cells; log Concentration (nM) 3.69897) was 0.3202 and 0.3151 and 0.2607 and 0.2498, the “viability, replicates (sheet 4G)” value (MFE319 cells; [4]) was 87.9896 and 96.6442 and 88.8312 and the “viability, replicates (sheet 4G)” value (MFE319 cells; [5]) was 105.101 and 108.114 and 111.169. For the same compound, the “viability, replicates (sheet 4G)” value (MFE319 cells; p53-01 Concentration (µM) 0.15625) was 94.6597 and 96.7065 and 100.094 and 89.7143, the “viability, replicates (sheet 4G)” value (MFE319 cells; p53-01 Concentration (µM) 0.3125) was 90.6182 and 88.5922 and 96.6649 and 91.0338 and the “viability, replicates (sheet 4G)” value (MFE319 cells; [6]) was 77.5481 and 91.8338 and 80.5818. For the same compound, the “viability, replicates (sheet 4G)” value (MFE319 cells; p53-01 Concentration (µM) 1.25) was 68.0623 and 80.2078 and 68.1143, the “viability, replicates (sheet 4G)” value (MFE319 cells; p53-01 Concentration (µM) 2.5) was 46.5039 and 41.4649 and 46.0156 and the “viability, replicates (sheet 4G)” value (MFE319 cells; p53-01 Concentration (µM) 5) was 29.174 and 32.0623 and 26.6805. For the same compound, the “viability, replicates (sheet 4G)” value (MFE319 cells; p53-01 Concentration (µM) 10) was 23.1584 and 24.4468 and 23.2416, the “rescue of viability decline by PMV6” value (MFE319 cells; p53-01 with PMV6 2.5 μM, CTG 4 days) was “partially compete the decline in cell viability” and the viability at 0.0390625 µM [3, 4] was 94%. The viability at 0.078125 µM [3, 5] was 99.7%, the viability at 0.625 µM [3, 6] was 85.4% and the viability at 1.25 µM ([3]; p53-01 Concentration (µM) 1.25) was 61.2%. The viability at 2.5 µM ([3]; p53-01 Concentration (µM) 2.5) was 41.5%, the viability at 5 µM ([3]; p53-01 Concentration (µM) 5) was 30% and the viability at 10 µM ([3]; p53-01 Concentration (µM) 10) was 22.2%. The p5301_AUC_to_10uM (MFE296 cells) was 0.5186, the “mean_norm (normalized viability)” value (MFE296 cells; Concentration 39.0625, 4 day) was 1.0133 and the “mean_norm (normalized viability)” value (MFE296 cells; Concentration 78.125, 4 day) was 1.079. The “mean_norm (normalized viability)” value (MFE296 cells; Concentration 156.25, 4 day) was 1.012, the “mean_norm (normalized viability)” value (MFE296 cells; Concentration 312.5, 4 day) was 1.043 and the “mean_norm (normalized viability)” value (MFE296 cells; Concentration 625, 4 day) was 0.9978. For the same compound, the “mean_norm (normalized viability)” value (MFE296 cells; Concentration 1250, 4 day) was 0.7559, the “mean_norm (normalized viability)” value (MFE296 cells; Concentration 2500, 4 day) was 0.6581 and the “mean_norm (normalized viability)” value (MFE296 cells; Concentration 5000, 4 day) was 0.4955. For the same compound, the “mean_norm (normalized viability)” value (MFE296 cells; Concentration 10000, 4 day) was 0.246, the IC50 (MFE296 cells; Homo sapiens, MFE-296, 96 h, 4 day treatment) was 4.32 µM and the IC50 (LNCaP cells; Homo sapiens, 96 h, LNCaP, 4 day treatment) was 14.1 µM. For the same compound, the “mean_norm (normalized viability)” value (LNCaP cells; Concentration 5000) was 0.7565, the “mean_norm (normalized viability)” value (LNCaP cells; Concentration 10000) was 0.7384 and the “mean_norm (normalized viability)” value (LNCaP cells; Concentration 20000) was 0.4932. For the same compound, the p5301_AUC_to_10uM (LNCaP cells; LNCaP) was 0.8069, the p5301_AUC_to_10uM (HepG2 cells) was 0.9503 and the “mean_norm (normalized viability)” value (HepG2 cells; Concentration 39.0625, 4 day) was 0.9684. For the same compound, the “mean_norm (normalized viability)” value (HepG2 cells; Concentration 78.125, 4 day) was 0.9673, the “mean_norm (normalized viability)” value (HepG2 cells; Concentration 156.25, 4 day) was 0.8732 and the “mean_norm (normalized viability)” value (HepG2 cells; Concentration 312.5, 4 day) was 0.9657. The “mean_norm (normalized viability)” value (HepG2 cells; Concentration 625, 4 day) was 0.8895, the “mean_norm (normalized viability)” value (HepG2 cells; Concentration 1250, 4 day) was 0.9491 and the “mean_norm (normalized viability)” value (HepG2 cells; Concentration 2500, 4 day) was 0.8943. For the same compound, the “mean_norm (normalized viability)” value (HepG2 cells; Concentration 5000, 4 day) was 1.008, the “mean_norm (normalized viability)” value (HepG2 cells; Concentration 10000, 4 day) was 0.9189 and the “mean_norm (normalized viability)” value (HepG2 cells; Concentration 20000, 4 day) was 0.9567. The IC50 (HepG2 cells; Homo sapiens, 96 h, 4 day treatment) was over 20 µM, the IC50 (NUGC-3 cells; Homo sapiens, NUGC-3, 96 h, 4 day treatment) was 1710 nM and the p5301_AUC_to_10uM (NUGC-3 cells) was 0.5108.

— PMC13128454, “Mutant p53 protein accumulation is selectively targetable by proximity-inducing drugs” (Nature Chemical Biology, 2025)
